For data set [1] the following is noted: 0.5 mM in 0.1 M PBS, pH 7.4, 37° C.; cited from earlier work.
Data set [2] relates to spermatozoa. As to conditions: cited from earlier work.
The target in data set [3] is human spermatozoa. Briefly: Inhibition of fractionated NO23-SAMMA-induced acrosomal loss by protein kinase G inhibitor. Conditions: Ca2+-independent (absence of added extracellular Ca2+). It is filed as cell-based. An excerpt: NO23-SAMMA, whether fractionated or not, appears, at least in part, to act through release of nitric oxide. Fractionated NO23-SAMMA-induced acrosomal loss in the absence of added extracellular Ca^2+ is inhibited by the selective protein kinase G inhibitor KT5823 (see FIG. 6). […] Acrosomal loss in human spermatozoa in response to NO donors is inhibited by protein kinase G inhibitors ([…] et al., “Signaling pathway of nitric oxide-induced acrosome reaction in human spermatozoa”, Biol. Reprod., 64: 1708-12 (2001)). […] Inhibition of acrosomal loss by the selective protein kinase G inhibitor supports this contention.

For data set [4], the system named is spermatozoa. Conditions: cited from earlier work. This is another data set of the same source.
In data set [5] the test system is human spermatozoa. Briefly: Acrosomal loss (AL) in human spermatozoa. Conditions: for EC50: Homo sapiens, Spermatozoa. It is filed as cell-based. The protocol: Measurement of AL was carried out as described previously. […] All reactions were carried out in either the presence or absence of added extracellular Ca^2+ (1.28 mM). […] Data are expressed as the average % maximal response, based on the AL induced by a maximally stimulating concentration of the calcium ionophore A23187.
Unless otherwise noted, acrosomal loss data were obtained from assays that included Ca^2+ in the extracellular medium. In contrast, acrosomal loss induced by NO donors occurs independent of Ca^2+. […] Although not wishing to be limited by theory, it appears that acrosomal loss in the presence of added extracellular Ca^2+ may be due to either or both moieties, whereas acrosomal loss in the absence of Ca^2+ is due entirely to the NO donor moiety.

Data set [6] relates to spermatozoa. Put plainly: Sperm immobilization (modified Sander and Cramer), motile spermatozoa. The class given is cell-based. Conditions: 10 mM. An excerpt: Data are presented as the percentage of motile spermatozoa at each concentration of test agent. When possible, test outcomes were also reported as the concentration of agent in the semen sample that reduces motility by 50%.

A further data set deals with HIV-1 Bee. Put plainly: HIV-1 infected primary lymphocytes, agent added after inoculation (p24, day 7). The class given is cell-based. Conditions: agent added after 2 h inoculation and washing, p24 on day 7. The protocol:
HIV is sensitive to inhibition by the NO donor used to synthesize NO-SAMMA (nitrooxypropanol), although substantially less than to NO-SAMMA. […] Viral replication was measured on day 7 of incubation (p24 levels).

For another data set, the system named is hyaluronidase. Briefly: Hyaluronidase activity inhibition. Conditions: 50 μM. The class given is biochemical. The protocol:
Hyaluronidase activity was measured as described in Example 8 of U.S. Pat. No. 5,932,619. […] In contrast, the NO donor moiety of NO23-SAMMA, nitrooxypropanol, is nearly without effect.

Data set [7] relates to C. trachomatis (serotype E/UW-5/CX). Put plainly: Infection of HeLa cells by C. trachomatis. The class given is cell-based, Chlamydia trachomatis. Conditions: read-out: IC50 against C. trachomatis. The protocol:
Effect of NO-SAMMA against C. trachomatis. […] This was followed by inoculation of the monolayer with chlamydial elementary bodies. One hour after inoculation, free microbes and/or microbicide were removed by washing, and the HeLa cell cultures were incubated for an additional 48 hours at 37° C. Chlamydia-induced inclusions were measured by immunofluorescence, after reacting cultures with Kallsted chlamydia culture confirmation fluorescein-conjugated monoclonal antibody.

Data set [8] has as its system vaginal/cervical epithelial and other cells. Conditions: cited from earlier work.

In brackets after ≈: the same amount, converted by molar mass. Read-outs that look alike come from different tables or passages of the source. Some results are limits rather than exact numbers.

On to `CC/C(=C\C(=N/O)C(N)=O)C(C)[N+](=O)[O-]` (racemic) [NOR-3, (±)-E-4-ethyl-2-[(E)-hydroxyimino]-5 nitro-3-hexenamide], for which, in [1], the half-life result is on record as “about 30 minutes”.
Consider `NCCOB(c1ccccc1)c1ccccc1` [2-APB], for which the “effect on SAMMA-induced acrosomal loss” value in the data set with spermatozoa [2] is recorded as “not inhibited”.
Take `CCCCCCOC(=O)[C@]1(O)C[C@@H]2O[C@@]1(C)n1c3ccccc3c3c4c(c5c6ccccc6n2c5c31)C(=O)NC4` [KT5720]: in the data set with spermatozoa [2], the “effect on SAMMA-induced acrosomal loss” value was “not inhibited”.
One may read the IC50 as the concentration at which inhibition is half-maximal. Consider `COC(=O)[C@@]1(OC)C[C@H]2O[C@]1(C)n1c3ccccc3c3c4c(c5c6ccccc6n2c5c31)C(=O)N(C)C4` [KT5823], for which the IC50 at human spermatozoa [3] turned out to be 700 nM. Besides, the “inhibition of SAMMA-induced acrosomal loss” value in the data set on spermatozoa [2] (2 μM) is given as more than 95%. In the data set with spermatozoa [4] (2 μM), the “effect on NO donor-induced acrosomal loss” value is given as “not inhibited”.
With `O=[N+]([O-])OCCCO` [Nitrooxypropanol, 3-nitrooxy-1-propanol], the EC50 worked out at 120 nM with human spermatozoa [5] (Ca2+-independent, read-out: ED50 acrosomal loss) and 120 nM in the data set on human spermatozoa [5] (read-out: ED50 as a stimulus of acrosomal loss). Further, the “% Motile Spermatozoa av ± SEM (n = 4)” value in the data set on spermatozoa [6] amounted to 66 ± 0.5 at 10 mM %. In the data set on HIV-1 Bee (Human immunodeficiency virus 1, Lymphocyte), this compound gave a half-inhibitory concentration (IC50) of 2540 µg/mL (≈ 21 mM). For the same compound, the “concentration giving 80% reduction (printed in the 3-Log reduction column)” value with HIV-1 Bee is recorded as 1017 (80% reduction) μg/mL. In addition, the “Inhibition ± SEM (N = 4)” value in the data set on hyaluronidase is listed as 8 ± 1.8% at 50 μM.
Take `O=c1onc2cnc3ccccc3n12` [ODQ]: the “inhibition of SAMMA-induced acrosomal loss” value in the data set on spermatozoa [2] (0.1 μM) was approximately 50%.
Turning to `O=c1c2nc(Br)n([C@@H]3O[C@@H]4CO[P@@](O)(=S)O[C@H]4[C@H]3O)c2nc2[nH]c(-c3ccccc3)cn12` [Rp-8-Br-PET-cGMPS], the “effect on NO donor-induced acrosomal loss” value with spermatozoa [4] (0.35 μM) is “not inhibited”.
For the compound nitroprusside, the “% maximal AL” value with human spermatozoa [5] (22 μM) is 74%. Also, the IC50 in data set [7] was found to be 23000 nM.
Consider nonoxynol-9, for which, in data set [8], the “lowest concentration that can injure cells” value is “about 0.0005%”.

Source of the values: patent publication US9603841B2, “Vector delivery-based microbicides” (Rush University Medical Center, priority 2005, dated 2017).
